In patent US12258326B2, “Pyrazole derivative and harmful organism-controlling agent” (KUMIAI CHEMICAL INDUSTRY CO., LTD., priority 2018, dated 2025):
Where two headings read alike, the source gives them in different places.

Assays:
Format in all cases: in vivo
[1] = system: Aphis gossypii; assay: Aphis gossypii killing test; conditions: read-out: insect mortality
Method: The water-dispersible powder prepared in accordance with Formulation example 2 was diluted in water so that the concentration of the active ingredient was 500 ppm. A nursery plant of cucumber preliminarily inoculated with nymphs of Aphis gossypii was dipped in this liquid agent, and air-dried. The nursery plant of cucumber after the treatment was placed in a thermostatic chamber at 25° C., and the number of live insects was counted after 3 days, and the insect mortality was determined by the calculation formula of numerical formula 1. The test was conducted singly.

[2] = system: Helicoverpa armigera; assay: Helicoverpa armigera killing test; conditions: 144 h, active ingredient 500 ppm, dipped cabbage leaf, newly hatched larvae, after 6 days, 25° C., read-out: insect mortality
Method: (§1) The water-dispersible powder prepared in accordance with Formulation example 2 was diluted in water so that the concentration of the active ingredient was 500 ppm. A cabbage leaf was dipped in this liquid agent, and air-dried, and then put into a plastic cup. Five newly hatched larvae of Helicoverpa armigera were released in the cup, and the cup was lidded. Then, the cup was placed in a thermostatic chamber at 25° C., and the number of dead insects was examined after 6 days, and the insect mortality was determined by the calculation formula of numerical formula 1. The test was conducted in duplicate.

[3] = system: Plutella xylostella; assay: Plutella xylostella killing test; conditions: 144 h, active ingredient 500 ppm, dipped cabbage leaf, second instar larvae, after 6 days, 25° C., read-out: insect mortality
Method: as §1, with “Ten second instar” for “Five newly hatched”, “Plutella xylostella” for “Helicoverpa armigera”, “singly.” for “in duplicate.”

[4] = system: Nilaparvata lugens; assay: Nilaparvata lugens killing activity test; conditions: 144 h, active ingredient 500 ppm, dipped paddy, second instar larvae, after 6 days, 25° C., read-out: insect mortality
Method: The water-dispersible powder prepared in accordance with Formulation example 2 was diluted in water so that the concentration of the active ingredient was 500 ppm. Paddy was dipped in this liquid agent, and then put into a plastic cup. Ten second instar larvae of Nilaparvata lugens were released in the plastic cup, and the cup was lidded, and placed in a thermostatic chamber at 25° C. After 6 days, the number of live insects was counted, and the insect mortality was determined by the calculation formula of numerical formula 1. The test was conducted singly.

[5] = active ingredient 500 ppm, dipped cucumber nursery plant inoculated with nymphs, after 3 days, 25° C.

Compound | mortality at 500 ppm [1, 5] [%] | mortality at 500 ppm [2] [%] | mortality at 500 ppm [3] [%] | mortality at 500 ppm [4] [%] | mortality at 500 ppm ([1]; in Cucumis sativus) [%]
Cc1ccccc1-c1cn(-c2cccnc2)nc1C(N)=O [A-0020, 1-(pyridine-3-yl)-4-(2-methylphenyl)-1H-pyrazole-3-carboxamide] | ≥ 50 | ≥ 50 | ≥ 50 | ≥ 50 | 
NC(=O)c1nn(-c2cccnc2)cc1-c1ccccc1C(F)(F)F [A-0044, 1-(pyridine-3-yl)-4-[2-(trifluoromethyl)phenyl]-1H-pyrazole-3-carboxamide] | ≥ 50 |  |  |  | 
COc1cc(Cl)ccc1-c1cn(-c2cccnc2)nc1C(N)=O [A-0634, 4-(4-chloro-2-methoxyphenyl)-1-(pyridine-3-yl)-1H-pyrazole-3-carboxamide] | ≥ 50 | ≥ 50 | ≥ 50 | ≥ 50 | 
COCC(=O)NC(=O)c1nn(-c2cccnc2)cc1-c1ccccc1C [A-4808, N-(2-methoxyacetyl)-1-(pyridine-3-yl)-4-(2-methylphenyl)-1H-pyrazole-3-carboxamide] | ≥ 50 |  |  | ≥ 50 | 
Cc1ccccc1-c1cn(-c2cccnc2)nc1C(N)=S [A-8646, 1-(pyridine-3-yl)-4-(2-methylphenyl)-1H-pyrazole-3-carbothioamide] |  |  | ≥ 50 | ≥ 50 | 
Cc1ccccc1-c1cn(-c2ccc[n+]([O-])c2)nc1C(N)=O [A-8862, 3-[3-carbamoyl-4-(2-methylphenyl)-1H-pyrazole-1-yl]pyridine-1-oxide] | ≥ 50 |  |  | ≥ 50 | 
Cc1cccnc1-c1cn(-c2cccnc2)nc1C(N)=O [B-0027, 4-(3-methylpyridine-2-yl)-1-(pyridine-3-yl)-1H-pyrazole-3-carboxamide] | ≥ 50 | ≥ 50 | ≥ 50 | ≥ 50 | 
Cc1ccncc1-c1cn(-c2cccnc2)nc1C(N)=O [B-0100, 4-(4-methylpyridine-3-yl)-1-(pyridine-3-yl)-1H-pyrazole-3-carboxamide] |  | ≥ 50 | ≥ 50 | ≥ 50 | 
CCOC(=O)c1nn(-c2cccnc2)cc1-c1ccccc1C(F)(F)F [C-0044, Ethyl 1-(pyridine-3-yl)-4-(2-(trifluoromethyl)phenyl)-1H-pyrazole-3-carboxylate] | ≥ 50 |  |  | ≥ 50 | 
CCOC(=O)c1nn(-c2cccnc2)cc1-c1ccc(Cl)cc1OC [C-0634, Ethyl 4-(4-chloro-2-methoxyphenyl)-1-(pyridine-3-yl)-1H-pyrazole-3-carboxylate] |  |  | ≥ 50 |  | 
CCOC(=O)c1nn(-c2cccnc2)cc1I [D-0003, ethyl 4-iodo-1-(pyridine-3-yl)-1H-pyrazole-3-carboxylate] | ≥ 50 | ≥ 50 |  |  | 
CCOC(=O)c1nn(-c2cccnc2)cc1OS(=O)(=O)C(F)(F)C(F)(F)C(F)(F)C(F)(F)F [D-0008, Ethyl 4-{[(nonafluorobutyl)sulfonyl]oxy}-1-(pyridine-3-yl)-1H-pyrazole-3-carboxylate] |  |  |  |  | ≥ 50
CCOC(=O)c1nn(-c2cccnc2)cc1-c1ncccc1C [D-0035, Ethyl 4-(3-methylpyridine-2-yl)-1-(pyridine-3-yl)-1H-pyrazole-3-carboxylate] | ≥ 50 | ≥ 50 | ≥ 50 | ≥ 50 | 
CCOC(=O)c1nn(-c2cccnc2)cc1-c1cnccc1C [D-0108, Ethyl 4-(4-methylpyridine-3-yl)-1-(pyridine-3-yl)-1H-pyrazole-3-carboxylate] | ≥ 50 | ≥ 50 | ≥ 50 |  | 
Cc1ccncc1-c1cn(-c2cccnc2)nc1C(=O)O [F-0108, 4-(4-methylpyridine-3-yl)-1-(pyridine-3-yl)-1H-pyrazole-3-carboxylic acid] |  | ≥ 50 | ≥ 50 |  | 
